# Where two headings read alike, the source gives them in different places.
# What was measured:
# [1] = rat, in vivo
# in vivo = conditions: male, Sprague-Dawley, rat, 100 ug/kg
# [2] = in vivo; cited from earlier work
smiles,measurement,setting,value
"CSCC[C@@H]1NC(=O)[C@H](CC(C)C)NC(=O)[C@H](CCCNC(=N)N)NC(=O)[C@H](CO)NC(=O)[C@@H]2CSSC[C@@H]3NC(=O)[C@H](CO)NC(=O)CNC(=O)[C@H]([C@@H](C)O)NC(=O)[C@H](CSSC[C@H](N)C(=O)N[C@@H](CCCCN)C(=O)NCC(=O)N[C@@H](CCCCN)C(=O)NCC(=O)N[C@@H](C)C(=O)N[C@@H](CCCCN)C(=O)N2)NC(=O)[C@H](CSSC[C@@H](C(N)=O)NC(=O)[C@H](CCCCN)NC(=O)CNC(=O)[C@H](CO)NC(=O)[C@H](CCCNC(=N)N)NC3=O)NC(=O)[C@H](CC(=O)O)NC(=O)[C@H](Cc2ccc(O)cc2)NC1=O [ziconotide, Ziconotide]",AUC0-6 in CSF,[1],1.57 ± 0.44 µg·min/mL
same,Cmax in CSF,[1],33.55 ± 7.39 ng/mL
same,Tmax in CSF,[1],0.25 h
same,"bioavailability (AUC0-6) in CSF, fold less than i.v administration",[1],~ 3 fold
same,elimination rate constant in CSF,[1],1.01 ± 0.34 h⁻¹
same,AUC0-6 in CSF,[1]; iv,4.98 ± 0.98 µg·min/mL
same,Cmax in CSF,[1]; iv,37.78 ± 6.8 ng/mL
same,Tmax in CSF,[1]; iv,2 h
same,level at 0.25 h,in vivo,992 ± 76.4 ng/mL
same,occurrence of meningitis,[2],3%

# — PMC4747835 (Journal of controlled release : official journal of the …, 2015)
